Laboratory results reported in the supplement of paper PMC11061612.

Key:
[1] = system: CHSA8926 (Chondrosarcoma); assay: Bliss excess, mean over the matrix (fraction); higher = more synergy
In short: (§1)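 Cell lines in DMEM/F12 or RPMI with 10% FBS were plated in 1536-well plates, held 24 hours at 37°C, 5% CO2, then given two-drug dose matrices for 72 hours (DMSO typically 0.2%). Viability was read by CellTiter-Glo 2.0 luminescence and scaled as inhibition from 0 (vehicle wells) to 1 (blank wells). Combination Emax is the second-highest inhibition in the matrix; Bliss excess is observed combination effect minus expected EA + EB − EA·EB, EA and EB being single-agent effects.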

[2] = system: COR-L279 (Small Cell Lung Carcinoma); assay: as above
In short: as §1

[3] = system: CW-2 (Colorectal Carcinoma); assay: as above
In short: as §1

[4] = system: ESO51 (Esophageal Adenocarcinoma); assay: as above
In short: as §1

G-361 (Melanoma) = assay: as above
In short: as §1

[5] = system: H9 (T-Cell Non-Hodgkin's Lymphoma); assay: as above
In short: as §1

[6] = system: IM-95 (Gastric Carcinoma); assay: as above
In short: as §1

[7] = system: JHH-4 (Hepatocellular Carcinoma); assay: as above
In short: as §1

[8] = system: KU812 (Chronic Myelogenous Leukemia); assay: as above
In short: as §1

[9] = system: KYSE-270 (Esophageal Squamous Cell Carcinoma); assay: as above
In short: as §1

[10] = system: MN-60 (B-Lymphoblastic Leukemia); assay: as above
In short: as §1

NCI-H2731 (Mesothelioma) = assay: as above
In short: as §1

[11] = system: NCI-H526 (Small Cell Lung Carcinoma); assay: as above
In short: as §1

[12] = system: SK-GT-2 (Gastric Carcinoma); assay: as above
In short: as §1

[13] = system: SK-GT-4 (Esophageal Adenocarcinoma); assay: as above
In short: as §1

[14] = system: SU-DHL-5 (B-Cell Non-Hodgkin's Lymphoma); assay: as above
In short: as §1

[15] = system: SUP-B15 (B-Lymphoblastic Leukemia); assay: as above
In short: as §1

[16] = system: T-T (Esophageal Squamous Cell Carcinoma); assay: as above
In short: as §1

[17] = system: VMRC-RCZ (Kidney Carcinoma); assay: as above
In short: as §1

[18] = system: SK-GT-2 (Gastric Carcinoma); assay: combination Emax (second highest fraction inhibited in the dose matrix, 72 h); higher = more inhibition; extreme values may be limits of the assay
In short: as §1
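For Bliss excess, mean over the matrix in this document: after 72 h of two-drug dosing.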

SMILES | Bliss excess [1] | Bliss excess [2] | Bliss excess [3] | Bliss excess [4] | Bliss excess (G-361 (Melanoma)) | Bliss excess [5] | Bliss excess [6] | Bliss excess [7] | Bliss excess [8] | Bliss excess [9] | Bliss excess [10] | Bliss excess (NCI-H2731 (Mesothelioma)) | Bliss excess [11] | Bliss excess [12] | Bliss excess [13] | Bliss excess [14] | Bliss excess [15] | Bliss excess [16] | Bliss excess [17] | combination Emax [18]
CCN(CCO)CCCOc1ccc2c(Nc3cc(CC(=O)Nc4cccc(F)c4)[nH]n3)ncnc2c1 [AZD2811] + C=CCn1c(=O)c2cnc(Nc3ccc(N4CCN(C)CC4)cc3)nc2n1-c1cccc(C(C)(C)O)n1 [AZD1775] (first compound max 1 µM, partner max 1 µM) | 0.0032 | 0.0107 | -0.0169 | -0.0002 | -0.0162 | 0.0252 | 0.0486 | 0.0015 | -0.034 | -0.0281 | 0.0139 | 0.0089 | -0.0226 | 0.0008 | -0.0545 | -0.0309 | 0.044 | -0.037 | -0.0512 | 0.769
COc1cccc(OCCCN)c1-c1cc(Nc2cnc(C#N)cn2)n[nH]1 [Prexasertib] + C[C@@H]1COCCN1C2=NC(=NC(=C2)C3(CC3)[S@](=N)(=O)C)C4=C5C=CNC5=NC=C4 [AZD6738] (first compound max 1 µM, 7x7, partner max 10 µM) | 0.0171 | 0.0035 | 0.0785 | -0.0632 | 0.045 | -0.0023 | 0.0244 | 0.0024 | -0.046 | -0.0323 | -0.0035 | -0.0089 | 0.0283 | -0.0043 | -0.0233 | -0.0147 | -0.0671 | 0.0178 | 0.0255 | 0.81
Cn1cnc2c(F)c(Nc3ccc(Br)cc3Cl)c(C(=O)NOCCO)cc21 [Selumetinib] + CC(C)n1c(=O)n(C)c2cnc3cc(F)c(-c4ccc(OCCCN5CCCCC5)nc4)cc3c21 [AZD1390] (first compound max 10 µM, 7x7, partner max 0.3 µM) | -0.0477 | -0.0094 | -0.0383 | 0.0114 | -0.0582 | -0.0033 | -0.0078 | -0.0444 | -0.0227 | -0.0376 | -0.0402 | -0.0364 | -0.0186 | -0.0423 | 0.0162 | 0.0267 | -0.0281 | -0.0162 | -0.0387 | 0.113
COc1cccc(OCCCN)c1-c1cc(Nc2cnc(C#N)cn2)n[nH]1 [Prexasertib] + CCc1c2c(nc3ccc(O)cc13)-c1cc3c(c(=O)n1C2)COC(=O)[C@]3(O)CC [SN-38] (first compound max 1 µM, 7x7, partner max 0.3 µM) | -0.0024 | -0.0221 | -0.0035 | -0.0376 | -0.0219 | -0.0004 | 0.0026 | -0.0289 | -0.124 | 0.0028 | -0.0452 | 0.0108 | -0.0164 | 0.034 | -0.0304 | 0.0023 | -0.0197 | 0.12 | 0.0578 | 0.975
